{"source": "paper PMC6748410", "about": "“A phase 2 study of an oral mTORC1/mTORC2 kinase inhibitor (CC-223) for non-pancreatic neuroendocrine tumors with or without carcinoid symptoms” (PLoS ONE, 2019)", "origin": "cited, not measured here", "tested_on": "NET arising from the pancreas, lung, or GI tract", "parameters": "method as in PMID 26703889, PMID 21306238", "conditions": "cited from earlier work"}
{"compound": "CO[C@H]1C[C@@H]2CC[C@@H](C)[C@@](O)(O2)C(=O)C(=O)N2CCCC[C@H]2C(=O)O[C@H]([C@H](C)C[C@@H]2CC[C@@H](OCCO)[C@H](OC)C2)CC(=O)[C@H](C)/C=C(\\C)[C@@H](O)[C@@H](OC)C(=O)[C@H](C)C[C@H](C)/C=C/C=C/C=C/1C", "note": "[everolimus]", "values": [{"measurement": "Median progression-free survival (PFS)", "value": 11.0, "unit": "months"}]}
